Source: patent publication EP1000062B1, “TRICYCLIC VASOPRESSIN AGONISTS” (Wyeth, priority 1997, dated 1999)

Tested on: Vasopressin V2
Experiment: Vasopressin V2 agonist effects of test compounds in normal conscious water-loaded rats
Assay type: in vivo
Conditions: Sprague-Dawley (CD) rats, oral 10 mg/kg, urine collected for four hours; for Osmolality (% Increase): change in osmolality as percent of control; for Urine Volume (% decrease): vs. control
Procedure: Vasopressin V2 Agonist Effects of Test Compounds in Normal Conscious Water-Loaded Rats:
On the day of test, rats were placed individually into metabolic cages equipped with devices to separate the feces from the urine and containers for collection of urine. Test compound or reference agent was given at an oral dose of 10 mg/kg in a volume of 10 ml /kg. […] Thirty minutes after dosing the test compound, rats were gavaged with water at 30 ml /kg into the stomach using a feeding needle. During the test, rats were not provided with water or food. Urine was collected for four hours after dosing of the test compound. At the end of four hours, urine volume was measured. […] Determinations of Na^+, K^+ and Cl^- ion were carried out using ion specific electrodes in a Beckman SYNCHRON EL-ISE Electrolyte System analyzer. […] In the screening test, two rats were used for each compound. If the difference in the urine volume of the two rats was greater than 50%, a third rat was used.

Compound	Osmolality (% Increase)	Urine Volume (% decrease)
O=C(c1ccc(-c2ccn(C(=O)c3ccccc3-c3ccccc3)n2)cc1)N1Cc2cccn2Cc2ccccc21 [Example 40, {4-[1-(Biphenyl-2-carbonyl)-1H-pyrazol-3-yl]-phenyl}-(5H,11H-pyrrolo[2,1-c][1,4]benzodiazepin-10-yl)-methanone]	183%	46%
O=C(c1ccc(-c2ccn(C(=O)c3ccccc3-c3ccc(C(F)(F)F)cc3)n2)cc1)N1Cc2cccn2Cc2ccccc21 [Example 41, {4-[1-(4'-Trifluoromethyl-biphenyl-2-carbonyl)-1H-pyrazol-3-yl]-phenyl}-(5H,11H-pyrrolo[2,1-c][1,4]benzodiazepin-10-yl)-methanone]	240%	69%
Cc1n[nH]c(-c2ccc(C(=O)N3Cc4cccn4Cc4ccccc43)cc2)n1 [Example 50, [4-(5-Methyl-2H-[1,2,4]triazol-3-yl)-phenyl]-(5H,11H-pyrrolo[2,1-c][1,4]-benzodiazepin-10-yl)-methanone]	223%	53%
Cc1nc(-c2ccc(C(=O)N3Cc4cccn4Cc4ccccc43)cc2)n(C)n1 [Example 51, [4-(2,5-Dimethyl-2H-[1,2,4]triazol-3-yl)-phenyl]-(5H,11H-pyrrolo[2,1-c]-[1,4]benzodiazepin-10-yl)-methanone]		72%
Cc1noc(-c2ccc(C(=O)N3Cc4cccn4Cc4ccccc43)cc2)n1 [Example 52, [4-(3-Methyl[1,2,4]oxadiazol-5-yl)-phenyl]-(5H,11H-pyrrolo-[2,1-c][1,4]-benzodiazepin-10-yl)-methanone]	261%	66%
Cn1cc(-c2ccc(C(=O)N3Cc4cccn4Cc4ccccc43)cc2)cn1 [Example 55, [4-(1-Methyl-1H-pyrazol-4-yl)-phenyl]-(5H,11H-pyrrolo[2,1-c][1,4]-benzodiazepin-10-yl)-methanone]	164%	80%
Cn1cc(-c2ccc(C(=O)N3Cc4cccn4Cc4ccccc43)cn2)cn1 [Example 57, [6-(1-Methyl-1H-pyrazol-4-yl)-pyridin-3-yl]-(5H,11H-pyrrolo[2,1-c][1,4]-benzodiazepin-10-yl)-methanone]	288%	77%
O=C(c1ccc(-n2cccn2)cc1)N1Cc2cccn2Cc2ccccc21 [Example 58, [4-(Pyrazol-1-yl)-phenyl]-(5H,11H-pyrrolo[2,1-c][1,4]benzodiazepin-10-yl)-methanone]	324%	49%
Cc1ccn(-c2ccc(C(=O)N3Cc4cccn4Cc4ccccc43)cc2)n1 [Example 59, [4-(3-Methyl-pyrazol-1-yl)-phenyl]-(5H,11H-pyrrolo[2,1-c][1,4]-benzodiazepin-10-yl)-methanone]	607%	80%
Cc1cnn(-c2ccc(C(=O)N3Cc4cccn4Cc4ccccc43)cc2)c1 [Example 60, [4-(4-Methyl-pyrazol-1-yl)-phenyl]-(5H,11H-pyrrolo[2,1-c][1,4]-benzodiazepin-10-yl)-methanone]	165%	54%
Cc1cc(C)n(-c2ccc(C(=O)N3Cc4cccn4Cc4ccccc43)cc2)n1 [Example 61, [4-(3,5-Dimethyl-pyrazol-1-yl)-phenyl]-(5H,11H-pyrrolo[2,1-c][1,4]-benzodiazepin-10-yl)-methanone]	245%	59%
O=C(c1ccc(-n2ccc(C(F)(F)F)n2)cc1)N1Cc2cccn2Cc2ccccc21 [Example 62, (5H,11H-Pyrrolo[2,1-c][1,4]benzodiazepin-10-yl)-[4-(3-trifluoromethyl-pyrazol-1-yl)-phenyl]-methanone]	150%	22%
O=C(c1ccc(-n2ccnc2)cc1)N1Cc2cccn2Cc2ccccc21 [Example 63, [4-(Imidazol-1-yl)-phenyl]-(5H,11H-pyrrolo[2,1-c][1,4]benzodiazepin-10-yl)-methanone]	214%	27%
Cc1cn(-c2ccc(C(=O)N3Cc4cccn4Cc4ccccc43)cc2)cn1 [Example 64, [4-(4-Methyl-imidazol-1-yl)-phenyl]-(5H,11H-pyrrolo[2,1-c][1,4]-benzodiazepin-10-yl)-methanone]	349%	79%
Cn1ccc(-c2ccc(C(=O)N3Cc4cccn4Cc4ccccc43)c(Cl)c2)n1 [Example 71, [2-Chloro-4-(1-methyl-1H-pyrazol-3-yl)-phenyl]-(5H,11H-pyrrolo[2,1-c]-[1,4]benzodiazepine-10-yl)-methanone]	264%	84%
N#Cc1ccc(C(=O)N2Cc3cccn3Cc3ccccc32)c(Cl)c1 [Example 77, 3-Chloro-4-(5H,11H-pyrrolo[2,1-c][1,4]benzodiazepine-10-carbonyl)-benzonitrile]	90%	13%
O=C(O)c1ccc(C(=O)N2Cc3cccn3Cc3ccccc32)c(Cl)c1 [Example 78, 3-Chloro-4-(5H,11H-Pyrrolo[2,1-c][1,4]benzodiazepine-10-carbonyl)-benzoic acid]	115%	21%
NC(=O)c1ccc(C(=O)N2Cc3cccn3Cc3ccccc32)c(Cl)c1 [Example 79, 3-Chloro-4-(5H,11H-pyrrolo[2,1-c][1,4]benzodiazepine-10-carbonyl)-benzamide]	123%	38%
Cc1n[nH]c(-c2ccc(C(=O)N3Cc4cccn4Cc4ccccc43)c(Cl)c2)n1 [Example 81, [2-Choro-4-(5-methyl-2H-[1,2,4]triazol-3-yl)phenyl]-(5H,11H-pyrrolo[2,1-c][1,4]benzodiazepine-10-carbonyl)-methanone]	490%	82%
O=C(c1ccc(-c2ncn[nH]2)cc1Cl)N1Cc2cccn2Cc2ccccc21 [Example 83, [2-Chloro-4-(2H-1,2,4-triazol-3-yl)-phenyl]-(5H,11H-pyrrolo[2,1-c][1,4]-benzodiazepin-10-yl)-methanone]	442%	85%
Cn1ncnc1-c1ccc(C(=O)N2Cc3cccn3Cc3ccccc32)c(Cl)c1 [Example 84, [2-Chloro-4-(2-methyl-2H-[1,2,4]triazol-3-yl)-phenyl]-(5H,11H-pyrrolo [2,1-c][1,4]benzodiazepin-10-carbonyl)-methanone]	291%	56%
